According to ChEMBL document CHEMBL3400114, “The design, synthesis and biological evaluation of conformationally restricted 4-substituted-2,6-dimethylfuro[2,3-d]pyrimidines as multi-targeted receptor tyrosine kinase and microtubule inhibitors as potential antitumor agents” (Bioorg Med Chem, 2015):

How the values were obtained:
[1] = Antiproliferative activity against human SKOV3 cells overexpressing wild type beta3 tubulin after 48 hrs by sulforhodamine B assay; format: functional, cell-based; settings: SK-OV-3, 48 h
[2] = Growth inhibition of human LOXIMVI cells after 48 hrs by sulforhodamine B assay; format: functional; settings: LOX IMVI
[3] = Growth inhibition of human OVCAR3 cells after 48 hrs by sulforhodamine B assay; format: functional; settings: OVCAR-3, 48 h
NCI-H322M = assay: Growth inhibition of human NCI-H322M cells after 48 hrs by sulforhodamine B assay; format: functional
NCI-H23 = assay: Growth inhibition of human NCI-H23 cells after 48 hrs by sulforhodamine B assay; format: functional; settings: NCI-H23, 48 h
[4] = Growth inhibition of human SF539 cells after 48 hrs by sulforhodamine B assay; format: functional; settings: SF-539, 48 h
TK-10 = assay: Growth inhibition of human TK10 cells after 48 hrs by sulforhodamine B assay; format: functional; settings: TK-10, 48 h
[5] = Growth inhibition of human HCT116 cells after 48 hrs by sulforhodamine B assay; format: functional; settings: HCT-116, 48 h
[6] = Antiangiogenic activity in VEGF-165 and bFGF-stimulated chicken embryo chorioallantoic membrane assessed as inhibition of blood vessel formation after 40 hrs by microscopy; format: functional, tissue-based, Gallus gallus
SK-OV-3 = assay: Growth inhibition of human SKOV3 cells after 48 hrs by sulforhodamine B assay; format: functional; settings: SK-OV-3, 48 h
MDA-MB-435 = assay: Antiproliferative activity against human MDA-MB-435 cells after 48 hrs by sulforhodamine B assay; format: functional, cell-based; settings: MDA-MB-435, 48 h
[7] = Growth inhibition of human OVCAR5 cells after 48 hrs by sulforhodamine B assay; format: functional; settings: OVCAR-5, 48 h
HOP-62 = assay: Growth inhibition of human HOP62 cells after 48 hrs by sulforhodamine B assay; format: functional; settings: HOP-62, 48 h
[8] = Antiproliferative activity against human SKOV3-MDR1-M6/6 cells overexpressing wild type beta3 tubulin after 48 hrs by sulforhodamine B assay; format: functional, cell-based; settings: SKOV3-MDR1-M6/6, 48 h
[9] = Induction of microtubule depolymerization in rat A10 cells after 18 hrs by indirect immunofluorescence assay; format: cell-based

Q: Which IC50 [1] does the source give for `COc1ccc2c(c1)CCCN2c1nc(C)nc2oc(C)cc12` here?
A: 12.9 nM

Q: And the GI50 [2]?
A: < 10 nM

Q: And the GI50 [3]?
A: < 10 nM

Q: And the GI50 (NCI-H322M)?
A: < 10 nM

Q: What about the GI50 (NCI-H23) of the same molecule?
A: < 10 nM

Q: And the GI50 [4]?
A: < 10 nM

Q: And the GI50 (TK-10)?
A: < 10 nM

Q: And the GI50 [5]?
A: < 10 nM

Q: What about the IC50 [6] of the same molecule?
A: 104000 nM

Q: What about the GI50 (SK-OV-3) of the same molecule?
A: < 10 nM

Q: What about the IC50 (MDA-MB-435) of the same molecule?
A: 9.8 nM

Q: What about the GI50 [7] of the same molecule?
A: 43 nM

Q: What about the GI50 (HOP-62) of the same molecule?
A: < 10 nM

Q: What about the IC50 [8] of the same molecule?
A: 19.4 nM

Q: What about the EC50 [9] of the same molecule?
A: 21 nM
